Results reported in patent US20250353891A1 (MEDIMMUNE LIMITED, priority 2022, published 2025).
Starred links: 1 amine or outer side, 2 acyl side, 3 side chain; linkers in the order of their positions; H or OH if unused. Non-standard residues stand in square brackets, D forms with d. Residues, ends and D or L forms follow the SMILES beside them. Groups on a side chain read outwards from the residue. *: point of attachment. C20 diacid = O=C(O)CCCCCCCCCCCCCCCCCCC(=O)*; C18 diacid = O=C(O)CCCCCCCCCCCCCCCCC(=O)*; γGlu = O=C(O)[C@H](CCC(=O)[*:2])N[*:1]; αMeF = C[C@](N)(Cc1ccccc1)C(=O)O; AEEA = NCCOCCOCC(=O)O; Aib = CC(C)(N)C(=O)O

Legend:
[1] = biological target: human GLP-1 receptor (hGLP-1R) (Homo sapiens, UniProt P43220); assay: cAMP production (HTRF) in CHO cells expressing hGLP-1R; format: cell-based; set-up: expressed in transfected cells; conditions: for EC50: Table 7, peptides modified at position 20, cAMP in CHO hGLP-1R cells, geometric mean, read-out: hGLP-1R EC50; for % Relative Potency Ratio: Table 7, % GLP-1R activity relative to GLP-1 / % GlucR activity relative to glucagon
Summary of the method: (§1)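 Read-out: HTRF cAMP (anti-cAMP cryptate donor, cAMP-d2 acceptor in conjugate/lysis buffer), converted to % Delta F and fitted by 4-parameter logistic for EC50. Cell densities were 1×10^5 cells/mL (hGLP-1R) or 2×10^5 cells/mL (hGCGR). Stimulation lasted 30 min at room temperature.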

[2] = biological target: human glucagon receptor (hGCGR) (Homo sapiens, UniProt P47871); assay: cAMP production (HTRF) in CHO cells expressing hGCGR; format: cell-based; set-up: expressed in transfected cells; conditions: Table 7, peptides modified at position 20; cAMP in CHO hGCGR cells; geometric mean; read-out: hGluc-R EC50
Summary of the method: as §1

Chain of human glucagon receptor (hGCGR) (P47871 26-477): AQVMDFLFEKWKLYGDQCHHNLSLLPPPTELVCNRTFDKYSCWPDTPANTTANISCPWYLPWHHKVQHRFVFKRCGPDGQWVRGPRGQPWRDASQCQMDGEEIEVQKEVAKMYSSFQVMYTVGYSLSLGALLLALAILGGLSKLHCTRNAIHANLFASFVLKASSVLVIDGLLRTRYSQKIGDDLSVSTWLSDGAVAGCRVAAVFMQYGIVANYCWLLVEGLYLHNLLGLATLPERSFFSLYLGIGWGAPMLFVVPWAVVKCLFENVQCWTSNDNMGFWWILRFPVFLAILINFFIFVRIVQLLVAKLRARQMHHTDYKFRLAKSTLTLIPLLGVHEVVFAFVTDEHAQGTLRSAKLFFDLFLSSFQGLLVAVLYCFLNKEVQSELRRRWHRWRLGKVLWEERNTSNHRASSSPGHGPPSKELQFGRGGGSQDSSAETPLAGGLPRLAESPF
Chain of human GLP-1 receptor (hGLP-1R) (P43220 24-463): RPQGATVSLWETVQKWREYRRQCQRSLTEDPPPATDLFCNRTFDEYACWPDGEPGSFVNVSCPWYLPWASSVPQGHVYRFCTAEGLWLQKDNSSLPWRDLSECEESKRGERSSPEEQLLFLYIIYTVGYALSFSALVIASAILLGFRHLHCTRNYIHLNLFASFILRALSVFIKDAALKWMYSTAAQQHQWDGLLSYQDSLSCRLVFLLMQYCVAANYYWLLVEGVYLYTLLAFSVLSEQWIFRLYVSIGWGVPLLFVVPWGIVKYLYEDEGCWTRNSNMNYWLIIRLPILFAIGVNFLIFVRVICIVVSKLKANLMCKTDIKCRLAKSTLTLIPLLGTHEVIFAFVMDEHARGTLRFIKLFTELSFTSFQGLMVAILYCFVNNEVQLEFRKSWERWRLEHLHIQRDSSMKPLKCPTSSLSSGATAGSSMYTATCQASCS

Compound | EC50 [1] | EC50 [2] | % Relative Potency Ratio [1]
CC[C@H](C)[C@H](NC(=O)C(C)(C)NC(=O)[C@H](CCC(N)=O)NC(=O)[C@@H](NC(=O)[C@](C)(Cc1ccccc1)NC(=O)[C@H](CC(=O)O)NC(=O)[C@H](CCCCNC(=O)COCCOCCNC(=O)COCCOCCNC(=O)CC[C@H](NC(=O)CC[C@H](NC(=O)CCCCCCCCCCCCCCCCCCC(=O)O)C(=O)O)C(=O)O)NC(=O)[C@H](C)NC(=O)[C@H](C)NC(=O)[C@H](CCCNC(=N)N)NC(=O)[C@H](CO)NC(=O)[C@H](CC(=O)O)NC(=O)[C@H](CC(C)C)NC(=O)[C@](C)(Cc1ccccc1)NC(=O)[C@H](CCCCN)NC(=O)[C@H](CO)NC(=O)[C@@H](NC(=O)[C@H](CC(=O)O)NC(=O)[C@H](CO)NC(=O)[C@@H](NC(=O)[C@](C)(Cc1ccccc1)NC(=O)[C@H](CO)NC(=O)CNC(=O)[C@H](Cc1c[nH]cn1)NC(=O)C(C)(C)NC(=O)[C@@H](N)Cc1c[nH]cn1)[C@@H](C)O)C(C)C)C(C)C)C(=O)N[C@@H](C)C(=O)N[C@@H](CCC(=O)O)C(=O)N[C@H](C(N)=O)[C@@H](C)O [Peptide 299] (H-H[Aib]HGS[αMeF]TSDVSK[αMeF]LDSRAAK([AEEA-AEEA-γGlu-γGlu-C20 diacid])D[αMeF]VQ[Aib]IAET-NH2) | 0.0758 nM | 0.193 nM | –
CC[C@H](C)[C@H](NC(=O)C(C)(C)NC(=O)[C@H](CCC(N)=O)NC(=O)[C@@H](NC(=O)[C@](C)(Cc1ccccc1)NC(=O)[C@H](CC(=O)O)NC(=O)[C@H](CCCCNC(=O)COCCOCCNC(=O)COCCOCCNC(=O)CC[C@H](NC(=O)CCCCCCCCCCCCCCCCC(=O)O)C(=O)O)NC(=O)[C@H](C)NC(=O)[C@H](C)NC(=O)[C@H](CCCNC(=N)N)NC(=O)[C@H](CO)NC(=O)[C@H](CC(=O)O)NC(=O)[C@H](CC(C)C)NC(=O)[C@](C)(Cc1ccccc1)NC(=O)[C@H](CCCCN)NC(=O)[C@H](CO)NC(=O)[C@@H](NC(=O)[C@H](CC(=O)O)NC(=O)[C@H](CO)NC(=O)[C@@H](NC(=O)[C@](C)(Cc1ccccc1)NC(=O)[C@H](CO)NC(=O)CNC(=O)[C@H](Cc1c[nH]cn1)NC(=O)C(C)(C)NC(=O)[C@@H](N)Cc1c[nH]cn1)[C@@H](C)O)C(C)C)C(C)C)C(=O)N[C@@H](C)C(=O)N[C@@H](CC(N)=O)C(=O)N[C@H](C(=O)O)[C@@H](C)O [Peptide 303] (H-H[Aib]HGS[αMeF]TSDVSK[αMeF]LDSRAAK([AEEA-AEEA-γGlu-C18 diacid])D[αMeF]VQ[Aib]IANT-OH) | 0.0991 nM | 0.0996 nM | 2.0
CC[C@H](C)[C@H](NC(=O)C(C)(C)NC(=O)[C@H](CCC(N)=O)NC(=O)[C@@H](NC(=O)[C@](C)(Cc1ccccc1)NC(=O)[C@H](CC(=O)O)NC(=O)[C@H](CCCCNC(=O)COCCOCCNC(=O)COCCOCCNC(=O)CC[C@H](NC(=O)CC[C@H](NC(=O)CCCCCCCCCCCCCCCCCCC(=O)O)C(=O)O)C(=O)O)NC(=O)[C@H](C)NC(=O)[C@H](C)NC(=O)[C@H](CCCNC(=N)N)NC(=O)[C@H](CO)NC(=O)[C@H](CC(=O)O)NC(=O)[C@H](CC(C)C)NC(=O)[C@](C)(Cc1ccccc1)NC(=O)[C@H](CCCCN)NC(=O)[C@H](CO)NC(=O)[C@@H](NC(=O)[C@H](CC(=O)O)NC(=O)[C@H](CO)NC(=O)[C@@H](NC(=O)[C@](C)(Cc1ccccc1)NC(=O)[C@H](CO)NC(=O)CNC(=O)[C@H](Cc1c[nH]cn1)NC(=O)C(C)(C)NC(=O)[C@@H](N)Cc1c[nH]cn1)[C@@H](C)O)C(C)C)C(C)C)C(=O)N[C@@H](C)C(=O)N[C@@H](CC(N)=O)C(=O)N[C@H](C(=O)O)[C@@H](C)O [Peptide 304] (H-H[Aib]HGS[αMeF]TSDVSK[αMeF]LDSRAAK([AEEA-AEEA-γGlu-γGlu-C20 diacid])D[αMeF]VQ[Aib]IANT-OH) | 0.239 nM | 0.687 nM | 5.7
CC[C@H](C)[C@H](NC(=O)[C@H](Cc1c[nH]c2ccccc12)NC(=O)[C@H](CCC(N)=O)NC(=O)[C@@H](NC(=O)[C@H](Cc1ccccc1)NC(=O)[C@H](CC(=O)O)NC(=O)[C@H](CCCCNC(=O)COCCOCCNC(=O)COCCOCCNC(=O)CC[C@H](NC(=O)CC[C@H](NC(=O)CCCCCCCCCCCCCCCCCCC(=O)O)C(=O)O)C(=O)O)NC(=O)[C@H](C)NC(=O)[C@H](C)NC(=O)[C@H](CCCNC(=N)N)NC(=O)[C@H](CO)NC(=O)[C@H](CC(=O)O)NC(=O)[C@H](CC(C)C)NC(=O)[C@](C)(Cc1ccccc1)NC(=O)[C@H](CCCCN)NC(=O)[C@H](CO)NC(=O)[C@@H](NC(=O)[C@H](CC(=O)O)NC(=O)[C@H](CO)NC(=O)[C@@H](NC(=O)[C@H](Cc1ccccc1)NC(=O)[C@@H](NC(=O)CNC(=O)[C@H](Cc1c[nH]cn1)NC(=O)C(C)(C)NC(=O)[C@@H](N)Cc1c[nH]cn1)[C@@H](C)O)[C@@H](C)O)C(C)C)C(C)C)C(=O)N[C@@H](C)C(=O)N[C@@H](CC(N)=O)C(=O)N[C@H](C(N)=O)[C@@H](C)O [Peptide 305] | 0.211 nM | 0.155 nM | 1.5
CC[C@H](C)[C@H](NC(=O)[C@H](Cc1c[nH]c2ccccc12)NC(=O)[C@H](CCC(=O)O)NC(=O)[C@@H](NC(=O)[C@H](Cc1ccccc1)NC(=O)[C@H](CC(=O)O)NC(=O)[C@H](CCCCNC(=O)COCCOCCNC(=O)COCCOCCNC(=O)CC[C@H](NC(=O)CCCCCCCCCCCCCCCCC(=O)O)C(=O)O)NC(=O)[C@H](C)NC(=O)[C@H](C)NC(=O)[C@H](CCCNC(=N)N)NC(=O)[C@H](CO)NC(=O)[C@H](CC(=O)O)NC(=O)[C@H](CC(C)C)NC(=O)[C@](C)(Cc1ccccc1)NC(=O)[C@H](CCCCN)NC(=O)[C@H](CO)NC(=O)[C@@H](NC(=O)[C@H](CC(=O)O)NC(=O)[C@H](CO)NC(=O)[C@@H](NC(=O)[C@H](Cc1ccccc1)NC(=O)[C@@H](NC(=O)CNC(=O)[C@H](CCC(N)=O)NC(=O)C(C)(C)NC(=O)[C@@H](N)Cc1c[nH]cn1)[C@@H](C)O)[C@@H](C)O)C(C)C)C(C)C)C(=O)N[C@@H](C)C(=O)N[C@@H](CC(N)=O)C(=O)N[C@H](C(N)=O)[C@@H](C)O [Peptide 306] | 0.0472 nM | 0.775 nM | 32.5
CC[C@H](C)[C@H](NC(=O)[C@H](Cc1c[nH]c2ccccc12)NC(=O)[C@H](CCCNC(=N)N)NC(=O)[C@@H](NC(=O)[C@H](Cc1ccccc1)NC(=O)[C@H](CC(=O)O)NC(=O)[C@H](CCCCNC(=O)COCCOCCNC(=O)COCCOCCNC(=O)CC[C@H](NC(=O)CCCCCCCCCCCCCCCCC(=O)O)C(=O)O)NC(=O)[C@H](C)NC(=O)[C@H](C)NC(=O)[C@H](CCCNC(=N)N)NC(=O)[C@H](CO)NC(=O)[C@H](CC(=O)O)NC(=O)[C@H](CC(C)C)NC(=O)[C@](C)(Cc1ccccc1)NC(=O)[C@H](CCCCN)NC(=O)[C@H](CO)NC(=O)[C@@H](NC(=O)[C@H](CC(=O)O)NC(=O)[C@H](CO)NC(=O)[C@@H](NC(=O)[C@H](Cc1ccccc1)NC(=O)[C@@H](NC(=O)CNC(=O)[C@H](CCC(N)=O)NC(=O)C(C)(C)NC(=O)[C@@H](N)Cc1c[nH]cn1)[C@@H](C)O)[C@@H](C)O)C(C)C)C(C)C)C(=O)N[C@@H](C)C(=O)N[C@@H](CC(N)=O)C(=O)N[C@H](C(N)=O)[C@@H](C)O [Peptide 307] | 0.0222 nM | 1.13 nM | 100.5
CC[C@H](C)[C@H](NC(=O)[C@H](Cc1c[nH]c2ccccc12)NC(=O)[C@H](CCC(N)=O)NC(=O)[C@@H](NC(=O)[C@H](Cc1ccccc1)NC(=O)[C@H](CC(=O)O)NC(=O)[C@H](CCCCNC(=O)COCCOCCNC(=O)COCCOCCNC(=O)CC[C@H](NC(=O)CCCCCCCCCCCCCCCCC(=O)O)C(=O)O)NC(=O)[C@H](C)NC(=O)[C@H](C)NC(=O)[C@H](CCCNC(=N)N)NC(=O)[C@@H](NC(=O)[C@H](CC(=O)O)NC(=O)[C@H](CC(C)C)NC(=O)[C@](C)(Cc1ccccc1)NC(=O)[C@H](CCCCN)NC(=O)[C@H](CO)NC(=O)[C@@H](NC(=O)[C@H](CC(=O)O)NC(=O)[C@H](CO)NC(=O)[C@@H](NC(=O)[C@H](Cc1ccccc1)NC(=O)[C@@H](NC(=O)CNC(=O)[C@H](CCC(N)=O)NC(=O)C(C)(C)NC(=O)[C@@H](N)Cc1c[nH]cn1)[C@@H](C)O)[C@@H](C)O)C(C)C)[C@@H](C)O)C(C)C)C(=O)N[C@@H](C)C(=O)N[C@@H](CC(N)=O)C(=O)N[C@H](C(N)=O)[C@@H](C)O [Peptide 308] (H-H[Aib]QGTFTSDVSK[αMeF]LDTRAAK([AEEA-AEEA-γGlu-C18 diacid])DFVQWIANT-NH2; N-terminus assumed) | 0.0275 nM | 1.72 nM | 123.4
CC[C@H](C)[C@H](NC(=O)[C@H](Cc1c[nH]c2ccccc12)NC(=O)[C@H](CCC(N)=O)NC(=O)[C@@H](NC(=O)[C@H](Cc1ccccc1)NC(=O)[C@H](CC(=O)O)NC(=O)[C@H](CCCCNC(=O)COCCOCCNC(=O)COCCOCCNC(=O)CC[C@H](NC(=O)CCCCCCCCCCCCCCCCC(=O)O)C(=O)O)NC(=O)[C@H](C)NC(=O)[C@H](C)NC(=O)[C@H](CCCNC(=N)N)NC(=O)[C@H](CCC(=O)O)NC(=O)[C@H](CC(=O)O)NC(=O)[C@H](CC(C)C)NC(=O)[C@](C)(Cc1ccccc1)NC(=O)[C@H](CCCCN)NC(=O)[C@H](CO)NC(=O)[C@@H](NC(=O)[C@H](CC(=O)O)NC(=O)[C@H](CO)NC(=O)[C@@H](NC(=O)[C@H](Cc1ccccc1)NC(=O)[C@@H](NC(=O)CNC(=O)[C@H](CCC(N)=O)NC(=O)C(C)(C)NC(=O)[C@@H](N)Cc1c[nH]cn1)[C@@H](C)O)[C@@H](C)O)C(C)C)C(C)C)C(=O)N[C@@H](C)C(=O)N[C@@H](CC(N)=O)C(=O)N[C@H](C(N)=O)[C@@H](C)O [Peptide 309] | 0.0706 nM | 17.4 nM | 486.8
